{"source": "patent US20160157484A1", "about": "“NATURAL ANTIMICROBIAL COMPOSITIONS” (Lincoln Manufacturing Inc., priority 2011, published 2016)", "assay": "Solubility and stability of 20% and 25% lauric acid in solvents and solvent mixtures"}
{"substance": "Glycereth 2-Cocoate", "values": [{"measurement": "Solubility of 20% Lauric Acid", "setting": "20% lauric acid in the named solvent", "value": "Not Soluble"}, {"measurement": "Solubility of 25% Lauric Acid", "setting": "25% lauric acid in the named solvent", "value": "Not Soluble"}]}
